Here are results for 13 compounds from patent US20080193505A1, “Nutritional Compositions For Modulating Vitamin C Bio-Availability” (Nestec S.A., priority 2005, published 2008).

The first experiment concerns SVCT1. Put plainly: Real-time PCR in-vitro test of SVCT1 gene expression in primary keratinocytes. Format: cell-based, human. The conditions noted are these: NHEK; 10 μM. As for the experimental part:
Confluent primary keratinocytes (NHEK) were treated with a test compound or subsequently used for reverse transcription and real-time PCR analysis of SVCT1 and SVCT2. 18S-rRNA and GAPDH mRNA analysis served as endogenous control (housekeeping genes).
Primary adult epidermal keratinocytes (NHEK) for Cambrex Company (USA, Ordering number: CC-2501) have been used in this study. They were grown in KGM medium (Cambrex Company, USA, Ordering number: CC-3101 and CC-4131) on fibronectin and collagen type I coated plastic dishes (6- or 12-well plates) at 37° C. and 5% CO2 and expanded until passage 4 where they were used for further experiments.
NHEK cells at passage 4 were seated in 6 well plates at a density of 5000 cells/cm2, determined by means of a Thoma chamber under a light microscope. Cells were grown to 100% confluence within 5-6 days with medium changed every second day and were further used for in vitro-test for gene expression as depicted schematically in FIG. 1.
After removal of the supernatant the cells were rinsed twice with Dubellco's phophate buffered saline (PBS, Sigma, Germany), cells were lysed with 350 μl of a lysis buffer (Buffer RL, Qiagen AG, Basel, Switzerland) containing 1% β-mercaptoethanol (Sigma, USA) and total RNAs from cell lysates were extracted using the QIAshredder column and the RNeasy® Mini Kit (Qiagen AG, Basel, Switzerland). RNA quantification was performed using the Ribogreen® RNA quantitation Kit (Molecular Probes, USA) on 96-well plates and a fluorescence microplate reader (Spectra fluor plus F 129005, Tecan). The measurements were done in duplicate. The samples were diluted either 1:680 or 1:3400 in a final volume of 100 μl 1×TE buffer. Dilutions of the ribosomal RNA in a concentration of 1, 0.5, 0.1, 0.02, 0 μg/ml were used as standards and the measurement was performed by fluorimetry at 485 nm and 538 nm. RNA quantification was then calculated compared to the standard curve. Integrity of RNA was controlled using agarose gel electrophoresis (1% agarose in TBE: 90 mM Tris/HCl pH 8.0, 80 mM Boric acid, 3 mM EDTA in ddH2O).
For reverse transciption 2 μl pd(N)6 random hexamers (Amersham Biosciences, Art. n° 272080, England) and 1 μl dNTP (10 mM, Amersham Biosciences, Art. n° 272050, −60, −70, −80, England) were added to 2 μg RNA in nuclease-free water (Ambion, USA) in a final volume of 12 μl. After 5 min incubation at 65° C., samples were immediately placed on ice and quickly centrifuged. Then, 4 μl of 5× first strand buffer (250 mM NaCl, 0.1 mM EDTA, 1 mM DTT, 0.1% (V/v) NP-40, 50% (v/v) glycerol), 2 μl of dithiothreitol, 1 μl of RNase inhibitor and 1 μl of reverse transcriptase SuperScript II RNase H^− (SUPERase-In, 20 U/μl, Ambion, Art. n° 2694, USA) were added (final volume 20 μl). […] The sample was then kept in the freezer at −20° C. until further use.
The real-time PCR was performed according to the TaqMane method in 96 well plates (96WP) using assays-on-demand primer and probes (SVCT1: Hs00195277_ml, SVCT2:, Hs00192765_ml, 18S-rRNA: 4310893E, GAPDH: 4310884E Applied Biosystems, USA). Analysis was done in triplicate using a master mix (3.5×) which contained 43.7 μl TaqMan® 2× Universal PCR master mix (Applied Biosystems, USA), 4.4 μl assays-on-demand primers and probes, 21.9 μl nuclease-free water and 17.5 μl cDNA (87.5 ng=[…] per replicate). Triplicates of 25 μl master mix were loaded on a 96 well ABI PRISM reaction plate (Applied Biosystems, USA), covered with a transparent optical adhesive cover and centrifuged three times at 200 rpm for 1 min or until all air-bubbles had been removed. The PCR reaction was then performed in the ABI PRISMS 7000 Sequence Detection System (Applied Biosystems, USA) using the following temperature program: activation of the enzyme: 2 min at 50° C.; denaturation: 10 min at 95° C. and 40 cycles target amplification: 15 sec […] at 95° C. and 1 min extension at 60° C.
In general terms: Real-time PCR tracks product formation cycle by cycle.
For `Oc1ccc(C2COc3cc(O)ccc3C2)cc1` (racemic) [equol, (R,S)-equol], the “influence on expression” value is listed as “did not show any influence”. As for `COc1ccc([C@@H]2CC(=O)c3c(O)cc(O)cc3O2)cc1O` [hesperetin/hesperidin, hesperetin], the “influence on expression” value is reported as “did not show any influence”. As for `COc1cc(/C=C/C(=O)CC(=O)/C=C/c2ccc(O)c(OC)c2)ccc1O` [curcumin], the “influence on expression” value is on record as “did not show any influence”. Turning to `O=c1c(O)c(-c2ccc(O)c(O)c2)oc2cc(O)cc(O)c12` [quercitin, quercetin], the “influence on expression” value is on record as “did not show any influence”. For the compound “(−) epigallocatechin gallate [(−) epigallocatechin gallate (EGCg)]”, the “influence on expression” value is reported as “did not show any influence”. In the case of `O=c1c(-c2ccc(O)cc2)coc2cc(O)cc(O)c12` [genistein], the “influence on expression” value is recorded as “did not show any influence”.

Still in this experiment, the particulars now being: summary statement in description.
In the case of `[Cl-].[Cl-].[Zn+2]` [ZnCl2], the “transcription of SVCT1 mRNA” value is recorded as “significantly down-regulated”. On to `C[S+]([O-])CCCCN=C=S` (stereo not shown) [sulforaphane], for which the “transcription of SVCT1 mRNA” value is “significantly down-regulated”. For `CC1=C(/C=C/C(C)=C/C=C/C(C)=C/C(=O)O)C(C)(C)CCC1` [all-trans retinoic acid], the “transcription of SVCT1 mRNA” value was “significantly down-regulated”.

The next experiment has as its system HaCaT cells. Briefly: 14C-labelled ascorbic acid up-take in HaCaT cells (oxidative stress model). The format is cell-based, human. Particulars: iron salt treated cells.
Procedure: Confluent HaCaT cells were treated for 18-24 h with a test compound or control, incubated with ^14C-labelled ascorbic acid at two different concentrations (5 μM and 250 μM) for 5 min, 10 min, 30 min, 60 min, 90 min and 120 min. Cells were lysed and the radiolabel in the supernatant and the cell lysate was quantified by scintillation counting.
Confluent HaCaT cells were treated for 2 h with 50 μM menadione (black rhombus), 500 μM H2O2 (triangles), conditioned medium obtained from UV-irradiated HaCaT cells (squares) or control (grey rhombus) and subsequently incubated with 50 μM ^14C-labelled ascorbic acid for 5 min, 10 min, 30 min, 60 min, 90 min and 120 min. Cells were lysed and the radiolabel in supernatant and cell lysate quantified by scintillation counting.
Confluent HaCaT cells were treated with 50 μM FeCl3 (triangles) or controls (grey rhombus) for 24 h and for additional 2 h with 50 μM menadione (filled symbols) or controls (open symbols). Subsequently, cells were incubated with 50 μM ^14C-labelled ascorbic acid for 5 min, 10 min, 30 min, 60 min, 90 min and 120 min, cells were lysed and the radiolabel in supernatant and cell lysate quantified by scintillation counting.
Confluent HaCaT cells were incubated with or without test compound (aqueous FeCl3 solution in different concentrations) for 18-24 h and eventually stressed for further 2 h with 50 μM menadione, 500 μM H2O2 or conditioned medium obtained from UV-irradiated HaCaTs. Then cells were washed twice with PBS and incubated with 300 μl or 400 μl of ^14C-labelled ascorbic acid at different concentrations of (5 μM, 50 μM or 250 μM) by diluting the prepared stock solution in the appropriate amount of transfer buffer. After incubation at 37° C. for different periods of time (5, 10, 30, 60, 90 and 120 min) cells were immediately placed on ice, supernatant removed and frozen, cells washed twice with ice-cold PBS and finally harvested with a cell scraper and 300 μl or 400 μl urea buffer (9.5M urea, 10 mM Tris/HCl pH 8.0, 2 mM EDTA pH 8.0). Amount of radiolabel in supernatant and cell lysate was then measured by scintillation counting of a dilution of 50 μl supernatant or 200 μl of cell lysate in 9 ml scintillation cocktail. Obtained data were analysed by blotting incubation time versus ascorbic acid up-take (either as percentage or nmolar).
Consider `[Cl][Fe]([Cl])[Cl]` [FeCl3], for which the “Vitamin C uptake by the cell” value is “enlarged”.

Still in this experiment, the particulars now being: similar conditions as for FeCl3; data not shown.
In the case of `CC(=O)N[C@@H](CS)C(=O)O` [N-acetyl-cysteine], the “ascorbic acid up-take in the oxidative stress model” value (shortened to “ascorbic acid up-take”) is listed as “increase ascorbic acid up-take”.

Regarding `NCCCC[C@H](N)C(=O)O` [lysine], the “ascorbic acid up-take” value is “increase ascorbic acid up-take”. As to `N[C@@H](CCC(=O)N[C@@H](CS)C(=O)NCC(=O)O)C(=O)O` [glutathione], the “ascorbic acid up-take” value is “increase ascorbic acid up-take”.
